# Test results: publication PMC6155907 (Molecules : A Journal of Synthetic Chemistry and Natural …, 2016)
# Key:
# GLP-1R = settings: radioligand binding and time-resolved fluorescence resonance energy transfer; authors state own rate is in the same range; ref [22],[23]; cited from earlier work
# [1] = system: human GLP-1R (GLP-1R-YFP); assay: Confocal microscopy of receptor internalization; type: cell-based; settings: 5 min after 1 µM GLP-1; HEK-293 transiently expressing GLP-1R-YFP; live cell confocal microscopy; at least three experiments
# Procedure: HEK-293 cells transiently expressing GLP-1R-YFP were plated on to a poly-D-lysin-coated coverslip and mounted on to an “Attofluor” holder (Molecular Probes, Leiden, The Netherlands). The cellular location of GLP-1R-YFP was monitored by live cell confocal microscopy performed on a Zeiss LSM 510 meta system (Carl Zeiss, Oberkochen, Germany). YFP was excited with the 514 nm line of an argon laser, and images were taken with an oil-immersion 63× lens using the factory settings for YFP.
structure (smiles),measurement,setting,value
"CC[C@H](C)[C@H](NC(=O)[C@H](Cc1ccccc1)NC(=O)[C@H](CCC(=O)O)NC(=O)[C@H](CCCCN)NC(=O)[C@H](C)NC(=O)[C@H](C)NC(=O)[C@H](CCC(N)=O)NC(=O)CNC(=O)[C@H](CCC(=O)O)NC(=O)[C@H](CC(C)C)NC(=O)[C@H](Cc1ccc(O)cc1)NC(=O)[C@H](CO)NC(=O)[C@H](CO)NC(=O)[C@@H](NC(=O)[C@H](CC(=O)O)NC(=O)[C@H](CO)NC(=O)[C@@H](NC(=O)[C@H](Cc1ccccc1)NC(=O)[C@@H](NC(=O)CNC(=O)[C@H](CCC(=O)O)NC(=O)[C@H](C)NC(=O)[C@@H](N)Cc1c[nH]cn1)[C@@H](C)O)[C@@H](C)O)C(C)C)C(=O)N[C@@H](C)C(=O)N[C@@H](Cc1c[nH]c2ccccc12)C(=O)N[C@@H](CC(C)C)C(=O)N[C@H](C(=O)N[C@@H](CCCCN)C(=O)NCC(=O)N[C@@H](CCCNC(=N)N)C(N)=O)C(C)C [GLP-1, glucagon-like peptide-1]",t1/2 of receptor internalization (range of previous studies),GLP-1R,2 to 3 min
same,cellular location of GLP-1R-YFP after agonist stimulation,[1],the receptor appeared as punctate dots in the cytoplasm
